The text below walks through data of US11266755B2, “Development and application of tumor diagnostic radioactive probe targeting folic acid receptor” (Kyungpook National University Industry-Academic Cooperation …, priority 2017, dated 2022).

For this assay, the system named is MDA-MB-231/Luc+. Briefly: PET imaging in breast cancer bone metastasis model. Type of assay: in vivo. The following applies: PET 1 hour after injection into the tail vein, same mouse, FIG. 13B. How it is done:
For the breast cancer metastasis model, MDA-MB-231/Luc+ was used, and after 10 days of direct injection of 1×10^5 cells into the left ventricle, IVIS-assisted luminescence images confirmed that bone metastasis occurred to the femoral bones. After verifying the establishment of bone metastasis model of breast cancer, further experiments were carried out (FIG. 12A).

As to `OC[C@H]1O[C@@H](O)[C@H]([18F])[C@@H](O)[C@@H]1O` [FDG], the “PET detection of breast cancer bone metastasis” value was “difficult to identify the tumor site clearly due to high background uptake”.
